# Laboratory results from patent publication US10660928B2, “Pharmaceutical composition containing combination extracts of Moutan Root Bark, Angelica Dahurica Root, bupleurum root or fractions thereof for prevention and treatment of neurodegenerative disorder” (UNIVERSITY-INDUSTRY COOPERATION GROUP OF KYUNG HEE …, priority 2014, dated 2020).
# How the values were obtained:
# [1] = test system: SH-SY5Y cells; assay: MTT assay, endoplasmic reticulum stress induced by thapsigargin or tunicamycin; format: cell-based, human; details: treatment 0.5 μg/ml
# Experimental: Particularly, SH-SY5Y cells were cultured by the same manner as described in Experimental Example <1-2>. The cells were treated with 1.0 ug/ml of the Angelica Dahurica Root extract prepared in Example <1-2> or 0.5 μg/ml or 1.0 μg/ml of Imperatorin, the active component thereof, followed by culture for 4 hours. The cells were treated with 0.5 μg/ml of thapsigargin (Thap) or 1 μg/ml of tunicamycin (Tuni), followed by culture for 24 hours to induce endoplasmic reticulum stress. Then, MTT assay was performed by the same manner as described in Experimental Example <1-2>. Compared with the normal control cells not treated with the extract or the active component thereof but treated with DMSO, the damage of mitochondria complex 1 in the cells, either increased or decreased, was investigated. The negative control was treated with 0.5 μg/ml of thapsigargin or 1 μg/ml of tunicamycin to cause endoplasmic reticulum stress but not treated with the extract or the active component thereof, followed by MTT assay by the same manner as described above.
# [2] = test system: SH-SY5Y, the human neuroblastoma cell line; assay: Cell survival rate (calcein) in normal cells, cytotoxicity; format: cell-based; details: human, 4 h, 0.5 μg/ml
# Experimental: Particularly, SH-SY5Y, the human neuroblastoma cell line, was inoculated in DMEM/F12 (Dulbeco's Modified Eagle's Medium & Ham's F12; Gibco, USA) supplemented with 10% FBS, followed by culture in a 37° C., 5% CO2/95% air (O2) incubator. Then, the cultured cells were transferred into a serum free medium at the density of 2.5×10^4 cells/well. […] The cells were collected and the cell survival rate was measured by using calcein. The survival rate of the cells that were increased or decreased compared with that of the normal control cells not-treated with the extract or its active component above and instead treated with DMSO was calculated and presented as percentage (%). Particularly, SH-SY5Y cells were cultured by the same manner as described in Experimental Example <1-1>. The cultured cells were transferred in a serum free medium at the density of 2.5×10^4 cells/well. […] The cells were collected and the cell survival rate was measured by using calcein. The cell survival rate that was increased or decreased compared with that of the normal control group not-treated with the extract or its active component above and instead treated with DMSO was calculated and presented as percentage (%).
# [3] = test system: XBP1p; assay: RT-PCR of endoplasmic reticulum stress marker XBP1p, thapsigargin; format: cell-based, human; details: treatment 0.5 μg/ml, thapsigargin 0.5 μg/ml; negative control 100.00
# Experimental: (§1) Particularly, SH-SY5Y cells were cultured by the same manner as described in Experimental Example <2-2>, and endoplasmic reticulum stress was induced. Then, RT-PCR was performed with the cells having endoplasmic reticulum stress by the same manner as described in Experimental Example <1-4>, followed by electrophoresis to investigate the expression levels of GRP78 and XBP1p genes on 1.5% agarose gel under UV. The normal control was not treated with the extract of the invention or the active component thereof but treated with DMSO alone. The negative control was not treated with the extract or the active component but treated with 0.5 μg/ml of thapsigargin alone to induce endoplasmic reticulum stress. Then, the expression of the endoplasmic reticulum stress marker gene was confirmed by the same manner as described above.
# (§2) Particularly, SH-SY5Y cells were cultured by the same manner as described in Experimental Example <2-2>, and endoplasmic reticulum stress was induced. Then, RT-PCR was performed with the cells having endoplasmic reticulum stress by the same manner as described in Experimental Example <1-4>, followed by electrophoresis to investigate the expression levels of GRP78 and XBP1p genes on 1.5% agarose gel under UV. The normal control was not treated with the extract of the invention but treated with DMSO alone. […]
# [4] = test system: SH-SY5Y cells; assay: ATP assay, endoplasmic reticulum stress induced by thapsigargin or tunicamycin; format: cell-based, human; details: treatment 0.5 μg/ml
# Experimental: Particularly, SH-SY5Y cells were cultured by the same manner as described in Experimental Example <2-2>, and endoplasmic reticulum stress was induced. Then, the intracellular ATP level was measured by the same manner as described in Experimental Example <1-3>. The normal control was not treated with the extract of the invention or the active component thereof but treated with DMSO alone. All the results were presented as % by the normal control to present the intracellular ATP level. The negative control was not treated with the extract or the active component but treated with 0.5 μg/ml of thapsigargin or 1.0 μg/ml of tunicamycin alone to induce endoplasmic reticulum stress. Then, the Intracellular ATP level was measured by the same manner as described above.
# [5] = test system: GRP78; assay: RT-PCR of endoplasmic reticulum stress marker GRP78, thapsigargin; format: cell-based, human; details: treatment 0.5 μg/ml, thapsigargin 0.5 μg/ml; negative control 100.00
# Experimental: as §1, §2
smiles,measurement,setting,value
"CC(C)=CCOc1c2occc2cc2ccc(=O)oc12 [Imperatorin, 9-[(3-Methyl-2-buten-1-yl)oxy]-7h-furo[3,2-g][1]benzopyran-7-one]",MTT (% of control),[1]; inducer thapsigargin 0.5 μg/ml,86.23 ± 5.31 % of control
same,MTT (% of control),[1]; inducer tunicamycin 1.0 μg/ml,84.93 ± 3.68 % of control
same,Cell survival rate (% of control),[2],101.16 ± 0.59 % of control
same,XBP1p/18S mRNA,[3],4.01 ± 0.05
same,Intracellular ATP content (% of control),[4]; inducer thapsigargin 0.5 μg/ml,104.85 ± 5.13 % of control
same,Intracellular ATP content (% of control),[4]; inducer tunicamycin 1.0 μg/ml,86.00 ± 1.18 % of control
same,GRP78/18S mRNA,[5],2.97 ± 0.05
